Common to all, as to assay type: cell-based
Experiment [1] has as its system Klebsiella sp. Description: antibacterial activity, MIC.
In experiment [2] the test system is F. solani. Put plainly: antifungal activity, MIC. As to conditions: Fusarium solani.
A further experiment concerns F. semitechtum. Put plainly: agar cup assay, zone of inhibition. Conditions: purified compound, 10 μg of the substance. Here is the method:
(§1) 2-Methylheptylisonicotinate of formula 1 was bioassayed following agar cup assay method (Grammer, 1976). […] The antibacterial activity of the bioactive molecule was tested against dominant bacterial strains such as Bacillus subtilis, E. coli, Shigella sp., Klebsiella sp. and Proteus mirabilis. Maximum inhibition was recorded in E. coli (30 mm in diameter) and Proteus mirabilis (28 mm). […] Maximum zone of inhibition was recorded in Fusarium solani and F. semitechtum (26 mm with 10 μg of the substance), and in F. oxysporum inhibition zone was 25 mm. Similar inhibition was also observed in F. moniliformae and Rhizoctonia solani (24 mm and 22 mm) respectively (Tables 2, 3 & 4). The above antibiotic activity against dominant pathogens is the clear indication of the potential application of the compound for both agricultural and medical purposes.
as §1, with “2-Methylheptylisonicotinate” for “2-Methylheptylisonicotinate of formula”, “(Table” for “(Tables”, “4).” for “4). The above antibiotic activity against dominant pathogens is the clear indication of the potential application of the compound for both agricultural and medical purposes.”

The test system of experiment [3] is Bacillus subtilis. Description: agar cup assay, zone of inhibition. As to conditions: purified compound, 10 μg of the substance. How it is done:
as §1
as §1, with “2-Methylheptylisonicotinate” for “2-Methylheptylisonicotinate of formula”, “(Table” for “(Tables”, “4).” for “4). The above antibiotic activity against dominant pathogens is the clear indication of the potential application of the compound for both agricultural and medical purposes.”

Experiment [4] has as its system Rhizoctonia solani. Put plainly: agar cup assay, zone of inhibition. As to conditions: purified compound, 10 μg of the substance. Here is the method:
as §1
as §1, with “2-Methylheptylisonicotinate” for “2-Methylheptylisonicotinate of formula”, “(Table” for “(Tables”, “4).” for “4). The above antibiotic activity against dominant pathogens is the clear indication of the potential application of the compound for both agricultural and medical purposes.”

For experiment [5], the system named is F. solani. Put plainly: agar cup assay, zone of inhibition. As to conditions: purified compound, 10 μg of the substance. Here is the method:
as §1
as §1, with “2-Methylheptylisonicotinate” for “2-Methylheptylisonicotinate of formula”, “(Table” for “(Tables”, “4).” for “4). The above antibiotic activity against dominant pathogens is the clear indication of the potential application of the compound for both agricultural and medical purposes.”

The test system of experiment [6] is E. coli. Description: agar cup assay, zone of inhibition. As to conditions: purified compound, 10 μg of the substance. Here is the method:
as §1
as §1, with “2-Methylheptylisonicotinate” for “2-Methylheptylisonicotinate of formula”, “(Table” for “(Tables”, “4).” for “4). The above antibiotic activity against dominant pathogens is the clear indication of the potential application of the compound for both agricultural and medical purposes.”

Experiment [7] deals with Shigella sp. Put plainly: agar cup assay, zone of inhibition. Conditions: purified compound, 10 μg of the substance. Here is the method:
as §1
as §1, with “2-Methylheptylisonicotinate” for “2-Methylheptylisonicotinate of formula”, “(Table” for “(Tables”, “4).” for “4). The above antibiotic activity against dominant pathogens is the clear indication of the potential application of the compound for both agricultural and medical purposes.”

Another experiment concerns F. oxysporum. Description: agar cup assay, zone of inhibition. As to conditions: purified compound, 10 μg of the substance. Here is the method: as §1
as §1, with “2-Methylheptylisonicotinate” for “2-Methylheptylisonicotinate of formula”, “(Table” for “(Tables”, “4).” for “4). The above antibiotic activity against dominant pathogens is the clear indication of the potential application of the compound for both agricultural and medical purposes.”

Experiment [8] has as its system Proteus mirabilis. Description: agar cup assay, zone of inhibition. Conditions: purified compound, 10 μg of the substance. Here is the method: as §1
as §1, with “2-Methylheptylisonicotinate” for “2-Methylheptylisonicotinate of formula”, “(Table” for “(Tables”, “4).” for “4). The above antibiotic activity against dominant pathogens is the clear indication of the potential application of the compound for both agricultural and medical purposes.”

For another experiment, the system named is Fusarium moniliforme. Description: agar cup assay, zone of inhibition. As to conditions: purified compound, 10 μg of the substance. Here is the method:
as §1
as §1, with “2-Methylheptylisonicotinate” for “2-Methylheptylisonicotinate of formula”, “(Table” for “(Tables”, “4).” for “4). The above antibiotic activity against dominant pathogens is the clear indication of the potential application of the compound for both agricultural and medical purposes.”

Experiment [9] relates to Klebsiella sp. Put plainly: agar cup assay, zone of inhibition. As to conditions: purified compound, 10 μg of the substance. How it is done: as §1
as §1, with “2-Methylheptylisonicotinate” for “2-Methylheptylisonicotinate of formula”, “(Table” for “(Tables”, “4).” for “4). The above antibiotic activity against dominant pathogens is the clear indication of the potential application of the compound for both agricultural and medical purposes.”

The subject of another experiment is Arthrobacter sp. Description: antibacterial activity, MIC.
The subject of another experiment is F. semitectum. Description: antifungal activity, MIC. Conditions: Fusarium incarnatum.
Experiment [10] has as its system E. coli. Description: antibacterial activity, MIC. As to conditions: Escherichia coli.
Experiment [11] deals with Proteus mirabilis. Description: antibacterial activity, MIC.
Another experiment has as its system F. oxysponim. Description: antifungal activity, MIC.
For experiment [12], the system named is Shigella sp. Description: antibacterial activity, MIC.
The test system of experiment [13] is Bacillus subtilis. Description: antibacterial activity, MIC.
The test system of experiment [14] is Rhizoctonia solani. Description: antifungal activity, MIC.
The test system of a further experiment is F. moniliformae. Description: antifungal activity, MIC.
Where [15] appears, read: Fusarium oxysporum, read-out: MIC.

In brackets after ≈: the same amount, converted by molar mass. Read-outs that look alike come from different tables or passages of the source.

On to `CCCCCC(C)COC(=O)c1ccncc1` (stereo not shown) [Compound 1, 2-methylheptylisonicotinate], for which the minimum inhibitory concentration (MIC) against Klebsiella sp. [1] was 50 µg/mL (≈ 212 µM); in the experiment on F. solani [2] it was 20 µg/mL (≈ 85 µM); in the experiment on Arthrobacter sp., 40 µg/mL (≈ 170 µM); in the experiment on F. semitectum it was 20 µg/mL (≈ 85 µM); against E. coli [10], 70 µg/mL (≈ 297 µM); in the experiment with Proteus mirabilis [11], 40 µg/mL (≈ 170 µM). For the same compound, the MIC against F. oxysponim (F. oxysponim (F. oxysporum), listed as I) was determined as 45 µg/mL (≈ 191 µM); in the experiment on F. oxysponim (setting [15]), 43 µg/mL (≈ 183 µM); with Shigella sp. [12], 60 µg/mL (≈ 255 µM); against Bacillus subtilis [13] it was 50 µg/mL (≈ 212 µM); against Rhizoctonia solani [14], 20 µg/mL (≈ 85 µM); against F. moniliformae (listed as I) it was 42 µg/mL (≈ 178 µM). In addition, the MIC in the experiment with F. moniliformae (read-out: MIC) was determined as 45 µg/mL (≈ 191 µM). The Inhibition zone in the experiment with F. semitechtum was found to be 26 mm; with Bacillus subtilis [3] it was 20 mm; with Rhizoctonia solani [4] it was 22 mm; in the experiment with F. solani [5] it was 26 mm; in the experiment with E. coli [6], 30 mm; with Shigella sp. [7], 20 mm. For the same compound, the Inhibition zone in the experiment with F. oxysporum is 25 mm; in the experiment on Proteus mirabilis [8], 28 mm; in the experiment with Fusarium moniliforme, 24 mm; in the experiment on Klebsiella sp. [9], 18 mm.

As for `NNC(=O)c1ccncc1` [Isoniazid, isonicotinic acid hydrazide, reference compound], the MIC against Klebsiella sp. [1] was 250 µg/mL (≈ 1820 µM); against F. solani [2] it was 300 µg/mL (≈ 2190 µM); in the experiment with Arthrobacter sp. it was 150 µg/mL (≈ 1090 µM); in the experiment on F. semitectum, 300 µg/mL (≈ 2190 µM); against E. coli [10], 250 µg/mL (≈ 1820 µM); against Proteus mirabilis [11] it was 200 µg/mL (≈ 1460 µM). Moreover, the MIC was determined as 350 µg/mL (≈ 2550 µM) in the experiment with F. oxysponim (setting [15]); 300 µg/mL (≈ 2190 µM) in the experiment on Shigella sp. [12]; 150 µg/mL (≈ 1090 µM) in the experiment with Bacillus subtilis [13]; 250 µg/mL (≈ 1820 µM) with Rhizoctonia solani [14]; 200 µg/mL (≈ 1460 µM) with F. moniliformae (read-out: MIC).

Source of the values: patent US6998411B2, “2-Methylheptylisonicotinate and process for production thereof” (Council of Scientific and Industrial Research, priority 2001, dated 2006).
